Results published in US20240199624A1, “COMPOUNDS, COMPOSITIONS, AND METHODS” (CHDI Foundation, Inc., priority 2022, published 2024).

Tests used:
[1] = P33 SPA counter assay (absence of enzyme); settings: interference with detection system
Protocol: P33 SPA counter assay: This assay was used in the absence of enzyme to determine whether the test compound interferes with the detection system. Otherwise, the same protocol and assay buffer as in the main SPA assay were applied (25 mM HEPES pH=7.5, 150 mM KCl, 2 mM MgCl2, 2 mM GSH, 0.01% Tween-20) and instead of enzyme addition, assay buffer was added. Hydrolysis of substrate (γ-[^33P]-ATP, 0.1 nM; Hartmann Analytic, FF-301; and cold ATP, 10 μM) to a similar level as under enzymatic conditions was achieved by incubation at 50° C. for 4 days. Decay of [^33P] with a half-life of 25.4 days was corrected by increasing the concentration of the labelled nucleotide with the appropriate factor; all steps with radioactive ATP were conducted behind appropriate shielding. After addition of pre-treated ATP substrate (10 μL) to the compounds and addition of buffer (10 μL, instead of enzyme), 20 μL of a 1:2 mix of ammonium molybdate (20 mg/mL Ammonium molybdate in 2.4M HCl) and SPA beads (ProteinA SPA beads from Perkin Elmer Cat #RPNQ0019 at 7.5 mg/mL+1% azide) was added per well and incubated at RT for 2 min. Then, 40 μL of 7 M CsCl and 0.1 M citrate was added per well and incubated for 1 h at room temperature before measuring on the MicroBeta (top read mode, 1 min per well). For full plate processing, all reagents were transferred with a pipettor (Selma, CyBio) apart from the final reagent (CsCl+citrate) which was added with a dispenser (MultiFlo, BioTek). Data analysis during assay development was done with Prism GraphPad, and IC50 fitting for whole compound plates was done with the in-house software Aplus.

human MutSbeta [2] = molecular target: T1, human MutSbeta (Homo sapiens, UniProt P20585+P43246); assay: ADP Glo assay 2.1; format: biochemical; settings: 10 μM ATP, 7 nM enzyme; buffer with 5 mM GSH, 0.2% Ovalbumin
T1 construct: Msh2(1-934), Gene ID NP_000242.1; Msh3(1-1137), Gene ID J04810.1
T1 sequence (P43246 whole entry): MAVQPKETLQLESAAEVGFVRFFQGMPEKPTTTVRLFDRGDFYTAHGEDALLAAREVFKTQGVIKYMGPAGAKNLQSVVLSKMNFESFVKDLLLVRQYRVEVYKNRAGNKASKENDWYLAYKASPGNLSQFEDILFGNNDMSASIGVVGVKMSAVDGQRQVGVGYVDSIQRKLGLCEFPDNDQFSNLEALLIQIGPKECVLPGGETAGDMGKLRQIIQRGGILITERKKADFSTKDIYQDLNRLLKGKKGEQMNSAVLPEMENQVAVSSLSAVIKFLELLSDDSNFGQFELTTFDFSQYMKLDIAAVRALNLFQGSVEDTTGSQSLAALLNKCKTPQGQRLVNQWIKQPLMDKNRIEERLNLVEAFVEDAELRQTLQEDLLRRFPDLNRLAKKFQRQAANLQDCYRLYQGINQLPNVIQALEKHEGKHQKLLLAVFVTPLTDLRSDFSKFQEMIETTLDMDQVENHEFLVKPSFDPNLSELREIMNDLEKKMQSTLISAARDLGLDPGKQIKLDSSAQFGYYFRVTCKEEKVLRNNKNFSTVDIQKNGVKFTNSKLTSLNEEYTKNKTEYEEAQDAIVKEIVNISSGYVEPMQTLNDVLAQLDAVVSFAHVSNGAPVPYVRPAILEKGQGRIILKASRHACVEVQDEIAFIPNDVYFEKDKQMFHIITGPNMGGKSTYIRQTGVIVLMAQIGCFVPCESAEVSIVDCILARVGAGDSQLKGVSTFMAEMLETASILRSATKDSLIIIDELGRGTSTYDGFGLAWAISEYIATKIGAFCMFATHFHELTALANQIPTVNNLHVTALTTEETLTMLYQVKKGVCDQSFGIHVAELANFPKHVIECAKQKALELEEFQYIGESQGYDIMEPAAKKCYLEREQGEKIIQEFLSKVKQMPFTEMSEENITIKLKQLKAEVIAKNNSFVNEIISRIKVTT
T1 sequence (P20585 whole entry): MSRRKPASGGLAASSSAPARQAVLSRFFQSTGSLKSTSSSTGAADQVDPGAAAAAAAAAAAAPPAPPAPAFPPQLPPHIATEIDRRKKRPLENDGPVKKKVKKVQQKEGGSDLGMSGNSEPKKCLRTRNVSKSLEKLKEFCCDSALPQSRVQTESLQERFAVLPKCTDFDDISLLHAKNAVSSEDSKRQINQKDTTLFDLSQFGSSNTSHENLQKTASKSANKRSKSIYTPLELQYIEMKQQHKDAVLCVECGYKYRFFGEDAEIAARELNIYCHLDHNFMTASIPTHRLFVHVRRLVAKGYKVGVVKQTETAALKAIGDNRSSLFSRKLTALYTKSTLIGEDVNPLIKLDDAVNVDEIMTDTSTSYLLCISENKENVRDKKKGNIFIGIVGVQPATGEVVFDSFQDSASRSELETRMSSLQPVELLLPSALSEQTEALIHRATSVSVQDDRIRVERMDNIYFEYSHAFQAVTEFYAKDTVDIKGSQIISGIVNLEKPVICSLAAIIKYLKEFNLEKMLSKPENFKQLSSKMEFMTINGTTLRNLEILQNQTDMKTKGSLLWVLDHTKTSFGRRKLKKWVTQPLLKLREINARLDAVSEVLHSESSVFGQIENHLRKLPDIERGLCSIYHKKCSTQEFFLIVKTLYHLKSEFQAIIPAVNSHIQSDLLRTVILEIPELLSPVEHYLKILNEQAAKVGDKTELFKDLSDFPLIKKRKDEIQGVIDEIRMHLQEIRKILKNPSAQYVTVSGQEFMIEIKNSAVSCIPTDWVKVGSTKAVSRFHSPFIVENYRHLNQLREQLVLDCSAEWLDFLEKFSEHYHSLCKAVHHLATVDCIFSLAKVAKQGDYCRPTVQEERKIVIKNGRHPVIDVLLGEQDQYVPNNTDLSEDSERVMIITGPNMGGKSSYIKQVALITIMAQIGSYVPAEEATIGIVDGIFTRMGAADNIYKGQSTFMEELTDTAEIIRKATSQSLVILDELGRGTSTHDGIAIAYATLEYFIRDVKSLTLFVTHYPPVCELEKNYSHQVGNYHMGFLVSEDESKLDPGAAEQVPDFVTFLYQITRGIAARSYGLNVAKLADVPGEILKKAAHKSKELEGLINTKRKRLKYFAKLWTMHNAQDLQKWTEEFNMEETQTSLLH
Protocol: (§1) ADP Glo assay 2.1: Enzyme human MutSbeta (Msh2(1-934), Gene ID NP_000242.1, Msh3(1-1137), Gene ID J04810.1) with 22 bp biotin-labeled DNA containing a GT-mismatch (purchased from Curia Global, TOP 5′-[…]-3′; BOT 3′-AGTAGCTAGGC - - - CGAAGTCTACC-5′-Biotin) was pre-incubated in assay buffer (25 mM HEPES pH=7.5, 150 mM KCl, 5 mM MgCl2, 5 mM GSH, 0.1% Pluronic F-127, 0.2% Ovalbumin) to allow formation of the enzyme-DNA complex. Plates with spotted compounds in serial dilutions in DMSO (80 nL) were filled with ATP (2 μL, 10 μM final concentration) followed by an incubation of 30 min at RT. Then, enzyme was added (2 μL, 7 nM final concentration) and the reaction was allowed to proceed for 60 min at 37° C. After the ATPase reaction, the commercially available “ADP-Glo Reagent” was added (incubate 40 min at RT) to deplete remaining ATP via the activity of […]. Subsequently, the commercially available “Kinase Detection Reagent” converted ADP to ATP via the activity of PEP and Pyruvate kinase. The ATP was then converted into light by Ultra-Glo Luciferase. The obtained luminescence was proportional to the ADP concentration generated during the initial ATPase reaction. The luminescence signal was measured with an Envision reader, raw data were analyzed towards controls (full reaction=0% inhibition; no reaction in absence of enzyme=100% inhibition) and IC50 curves were analyzed with the inhouse software Aplus.

human MutSbeta [3] = molecular target: T1, human MutSbeta; assay: ADP Glo assay 1.1; format: biochemical; settings: SPA buffer, no Ovalbumin; enzyme added to compounds before ATP; read-out: ADP Gol 1.1 assay IC50
Protocol: as §1
ADP Glo assay 1.1: The ADP Glo 2.1 assay was adapted to enable assessment of a more direct interaction of the compound with the enzyme: (1) the SPA buffer was applied (25 mM HEPES pH=7.5, 150 mM KCl, 2 mM MgCl2, 2 mM GSH, 0.01% Tween-20) which contained no decoy Ovalbumin protein. (2) The order of reagent addition was changed, and enzyme was now added directly to the spotted compounds before addition of ATP.

human MutSα = molecular target: T2, human MutSα (Homo sapiens, UniProt P43246+P52701); assay: ADP Glo assay with MutSα (2.1); format: biochemical; settings: 15 nM MutSα/DNA, 30 μM ATP
T2 construct: Msh2(1-934), Gene ID NP_000242.1; Msh6(1-1360), Gene ID NP_001393725.1
T2 sequence (P43246 whole entry): as the sequence (P43246 whole entry) above
T2 sequence (P52701 whole entry): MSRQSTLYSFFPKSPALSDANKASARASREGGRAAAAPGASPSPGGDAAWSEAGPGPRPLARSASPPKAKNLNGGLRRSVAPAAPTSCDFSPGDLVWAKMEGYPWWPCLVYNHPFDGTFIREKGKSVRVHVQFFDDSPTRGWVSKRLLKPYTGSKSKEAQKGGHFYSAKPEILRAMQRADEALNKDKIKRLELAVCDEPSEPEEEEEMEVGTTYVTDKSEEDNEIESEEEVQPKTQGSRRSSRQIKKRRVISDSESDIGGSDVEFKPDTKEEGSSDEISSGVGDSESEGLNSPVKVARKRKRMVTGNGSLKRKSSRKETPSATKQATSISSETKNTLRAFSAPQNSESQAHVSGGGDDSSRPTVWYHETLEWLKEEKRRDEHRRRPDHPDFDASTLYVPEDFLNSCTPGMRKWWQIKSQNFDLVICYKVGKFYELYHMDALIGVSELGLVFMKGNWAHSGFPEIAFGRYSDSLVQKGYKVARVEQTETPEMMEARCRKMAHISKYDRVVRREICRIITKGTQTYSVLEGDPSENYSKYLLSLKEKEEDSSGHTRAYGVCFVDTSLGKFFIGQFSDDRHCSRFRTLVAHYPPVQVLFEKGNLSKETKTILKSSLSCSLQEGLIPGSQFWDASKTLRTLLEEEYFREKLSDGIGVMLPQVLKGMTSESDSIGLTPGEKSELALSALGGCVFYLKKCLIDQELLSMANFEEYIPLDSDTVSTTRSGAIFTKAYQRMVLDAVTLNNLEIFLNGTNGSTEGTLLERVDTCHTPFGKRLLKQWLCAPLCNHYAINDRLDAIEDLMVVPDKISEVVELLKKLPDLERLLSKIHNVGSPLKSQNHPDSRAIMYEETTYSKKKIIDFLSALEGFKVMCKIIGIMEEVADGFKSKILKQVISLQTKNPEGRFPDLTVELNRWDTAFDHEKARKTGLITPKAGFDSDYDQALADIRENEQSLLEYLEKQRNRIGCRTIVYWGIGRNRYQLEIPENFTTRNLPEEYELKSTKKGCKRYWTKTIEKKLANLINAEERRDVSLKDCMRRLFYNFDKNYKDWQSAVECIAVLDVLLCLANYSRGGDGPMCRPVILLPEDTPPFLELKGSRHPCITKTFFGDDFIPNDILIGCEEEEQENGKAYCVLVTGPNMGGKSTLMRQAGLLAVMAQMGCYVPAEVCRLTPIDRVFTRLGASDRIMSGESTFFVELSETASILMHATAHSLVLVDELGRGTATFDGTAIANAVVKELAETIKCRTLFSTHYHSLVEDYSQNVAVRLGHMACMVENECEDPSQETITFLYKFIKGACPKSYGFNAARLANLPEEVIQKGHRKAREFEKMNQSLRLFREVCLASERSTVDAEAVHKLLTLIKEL
Protocol: as §1
ADP Glo assay with MutSα (2.1): The ADP Glo assay version 2.1 with the enzyme human MutSα (Msh2(1-934), Gene ID NP_000242.1, Msh6(1-1360), Gene ID NP_001393725.1) was based on the same principle and protocol steps as the MutSβ assay. A 22 bp biotin-labeled DNA containing a GT-mismatch (purchased from Curia Global, TOP 5′-[…]-3′; BOT 3′-AGTAGCTAGGC - - - CGAAGTCTACC-5′-Biotin) was used for binding to MutSα. For this assay, concentrations of enzyme and ATP were optimized to 15 nM MutSα/DNA and 30 μM ATP.

IC50 [1]	IC50 (human MutSbeta [2])	IC50 (human MutSbeta [3])	IC50 (human MutSα)	Compound
> 200 µM	67.3 µM	54.8 µM	135 µM	Cc1ccc(Nc2nc(N3CCN(C)CC3)nc3nccnc23)cc1C [Compound 2, N-(3,4-dimethylphenyl)-2-(4-methylpiperazin-1-yl)pteridin-4-amine]
> 200 µM	152 µM	64.3 µM	121 µM	CCN1CCN(c2nc(Nc3ccc(Cl)cc3)c3nccnc3n2)CC1 [Compound 4, N-(4-Chlorophenyl)-2-(4-ethylpiperazin-1-yl)pteridin-4-amine]
